Measurements: ChEMBL document CHEMBL3994622, “Design and synthesis of new RAF kinase-inhibiting antiproliferative quinoline derivatives. Part 2: Diarylurea derivatives” (Eur J Med Chem, 2017)

The compounds below were run on HT-29 (assay: Growth inhibition of human HT-29 cells assessed as cell growth at 10 uM incubated for 48 hrs by sulforhodamine B assay relative to control). Conditions: HT-29, 48 h, read-out: Activity.
Type: functional
Work on `COc1cc2cc(Oc3ccc(NC(=O)Nc4ccccc4)cc3)c(C)nc2cc1OC` yielded a growth at 10 µM of 48.9%.

These compounds were tested on IGROV-1 (assay: Growth inhibition of human IGROV1 cells assessed as cell growth at 10 uM incubated for 48 hrs by sulforhodamine B assay relative to control). Conditions: IGROV-1, 48 h, read-out: Activity.
Type: functional
`COc1cc2cc(Oc3ccc(NC(=O)Nc4ccccc4)cc3)c(C)nc2cc1OC` showed a growth at 10 µM of 103%.

What follows are compounds tested on SF-268 (assay: Growth inhibition of human SF268 cells assessed as cell growth at 10 uM incubated for 48 hrs by sulforhodamine B assay relative to control). Conditions: SF-268, 48 h, read-out: Activity.
Type: functional
`COc1cc2cc(Oc3ccc(NC(=O)Nc4ccccc4)cc3)c(C)nc2cc1OC` showed a growth at 10 µM of 88.1%.

The compounds below were run on NCI-H23 (assay: Growth inhibition of human NCI-H23 cells assessed as cell growth at 10 uM incubated for 48 hrs by sulforhodamine B assay relative to control). Conditions: NCI-H23, 48 h, read-out: Activity.
Type: functional
`COc1cc2cc(Oc3ccc(NC(=O)Nc4ccccc4)cc3)c(C)nc2cc1OC` showed a growth at 10 µM of 87.2%.

The compounds below were run on LOX IMVI (assay: Growth inhibition of human LOXIMVI cells assessed as cell growth at 10 uM incubated for 48 hrs by sulforhodamine B assay relative to control). Conditions: read-out: Activity.
Type: functional
Work on `COc1cc2cc(Oc3ccc(NC(=O)Nc4ccccc4)cc3)c(C)nc2cc1OC` yielded a growth at 10 µM of 82.1%.

What follows are compounds tested on NCI-H460 (assay: Growth inhibition of human NCI-H460 cells assessed as cell growth at 10 uM incubated for 48 hrs by sulforhodamine B assay relative to control). Conditions: NCI-H460, 48 h, read-out: Activity.
Type: functional
Compound `COc1cc2cc(Oc3ccc(NC(=O)Nc4ccccc4)cc3)c(C)nc2cc1OC` has a growth at 10 µM of 69%.

The compounds below were run on Malme-3M (assay: Growth inhibition of human MALME-3M cells assessed as cell growth at 10 uM incubated for 48 hrs by sulforhodamine B assay relative to control). Conditions: read-out: Activity.
Type: functional
Compound `COc1cc2cc(Oc3ccc(NC(=O)Nc4ccccc4)cc3)c(C)nc2cc1OC` has a growth at 10 µM of 86.4%.

These compounds were tested on SF-295 (assay: Growth inhibition of human SF295 cells assessed as cell growth at 10 uM incubated for 48 hrs by sulforhodamine B assay relative to control). Conditions: SF-295, 48 h, read-out: Activity.
Type: functional
Work on `COc1cc2cc(Oc3ccc(NC(=O)Nc4ccccc4)cc3)c(C)nc2cc1OC` yielded a growth at 10 µM of 54%.

The compounds below were run on HCT-15 (assay: Growth inhibition of human HCT15 cells assessed as cell growth at 10 uM incubated for 48 hrs by sulforhodamine B assay relative to control). Conditions: HCT-15, 48 h, read-out: Activity.
Type: functional
`COc1cc2cc(Oc3ccc(NC(=O)Nc4ccccc4)cc3)c(C)nc2cc1OC` gave a growth at 10 µM of 64.1%.

What follows are compounds tested on SF-539 (assay: Growth inhibition of human SF539 cells assessed as cell growth at 10 uM incubated for 48 hrs by sulforhodamine B assay relative to control). Conditions: SF-539, 48 h, read-out: Activity.
Type: functional
`COc1cc2cc(Oc3ccc(NC(=O)Nc4ccccc4)cc3)c(C)nc2cc1OC` showed a growth at 10 µM of 78%.

What follows are compounds tested on A498 (assay: Growth inhibition of human A498 cells assessed as cell growth at 10 uM incubated for 48 hrs by sulforhodamine B assay relative to control). Conditions: A498, 48 h, read-out: Activity.
Type: functional
Compound `COc1cc2cc(Oc3ccc(NC(=O)Nc4ccccc4)cc3)c(C)nc2cc1OC` has a growth at 10 µM of 54%.

Each compound was assayed on U-251 (assay: Growth inhibition of human U251 cells assessed as cell growth at 10 uM incubated for 48 hrs by sulforhodamine B assay relative to control). Conditions: U-251, 48 h, read-out: Activity.
Type: functional
For `COc1cc2cc(Oc3ccc(NC(=O)Nc4ccccc4)cc3)c(C)nc2cc1OC`, the growth at 10 µM was 48%.

These compounds were tested on MDA-MB-468 (assay: Growth inhibition of human MDA-MB-468 cells assessed as cell growth at 10 uM incubated for 48 hrs by sulforhodamine B assay relative to control). Conditions: MDA-MB-468, 48 h, read-out: Activity.
Type: functional
In the case of `COc1cc2cc(Oc3ccc(NC(=O)Nc4ccccc4)cc3)c(C)nc2cc1OC`, the growth at 10 µM is reported as 35.3%.

Each compound was assayed on K562 (assay: Growth inhibition of human K562 cells assessed as cell growth at 10 uM incubated for 48 hrs by sulforhodamine B assay relative to control). Conditions: K562, 48 h, read-out: Activity.
Type: functional
With `COc1cc2cc(Oc3ccc(NC(=O)Nc4ccccc4)cc3)c(C)nc2cc1OC` the growth at 10 µM was 42.8%.

What follows are compounds tested on MCF7 (assay: Growth inhibition of human MCF7 cells assessed as cell growth at 10 uM incubated for 48 hrs by sulforhodamine B assay relative to control). Conditions: MCF7, 48 h, read-out: Activity.
Type: functional
Compound `COc1cc2cc(Oc3ccc(NC(=O)Nc4ccccc4)cc3)c(C)nc2cc1OC` has a growth at 10 µM of 72.8%.

What follows are compounds tested on SK-MEL-2 (assay: Growth inhibition of human SK-MEL-2 cells assessed as cell growth at 10 uM incubated for 48 hrs by sulforhodamine B assay relative to control). Conditions: SK-MEL-2, 48 h, read-out: Activity.
Type: functional
In the case of `COc1cc2cc(Oc3ccc(NC(=O)Nc4ccccc4)cc3)c(C)nc2cc1OC`, the growth at 10 µM is reported as 78.8%.

The compounds below were run on OVCAR-4 (assay: Growth inhibition of human OVCAR4 cells assessed as cell growth at 10 uM incubated for 48 hrs by sulforhodamine B assay relative to control). Conditions: OVCAR-4, 48 h, read-out: Activity.
Type: functional
In the case of `COc1cc2cc(Oc3ccc(NC(=O)Nc4ccccc4)cc3)c(C)nc2cc1OC`, the growth at 10 µM is reported as 70.2%.

Each compound was assayed on MDA-MB-435 (assay: Growth inhibition of human MDA-MB-435 cells assessed as cell growth at 10 uM incubated for 48 hrs by sulforhodamine B assay relative to control). Conditions: MDA-MB-435, 48 h, read-out: Activity.
Type: functional
In the case of `COc1cc2cc(Oc3ccc(NC(=O)Nc4ccccc4)cc3)c(C)nc2cc1OC`, the growth at 10 µM is reported as 89.4%.

What follows are compounds tested on OVCAR-3 (assay: Growth inhibition of human OVCAR3 cells assessed as cell growth at 10 uM incubated for 48 hrs by sulforhodamine B assay relative to control). Conditions: OVCAR-3, 48 h, read-out: Activity.
Type: functional
In the case of `COc1cc2cc(Oc3ccc(NC(=O)Nc4ccccc4)cc3)c(C)nc2cc1OC`, the growth at 10 µM is reported as 67.1%.

Each compound was assayed on COLO 205 (assay: Growth inhibition of human COLO205 cells assessed as cell growth at 10 uM incubated for 48 hrs by sulforhodamine B assay relative to control). Conditions: COLO 205, 48 h, read-out: Activity.
Type: functional
`COc1cc2cc(Oc3ccc(NC(=O)Nc4ccccc4)cc3)c(C)nc2cc1OC` showed a growth at 10 µM of 85.7%.

Each compound was assayed on 786-0 (assay: Growth inhibition of human 786-0 cells assessed as cell growth at 10 uM incubated for 48 hrs by sulforhodamine B assay relative to control). Conditions: 786-0, 48 h, read-out: Activity.
Type: functional
`COc1cc2cc(Oc3ccc(NC(=O)Nc4ccccc4)cc3)c(C)nc2cc1OC` gave a growth at 10 µM of 94.8%.

What follows are compounds tested on SK-MEL-5 (assay: Growth inhibition of human SK-MEL-5 cells assessed as cell growth at 10 uM incubated for 48 hrs by sulforhodamine B assay relative to control). Conditions: SK-MEL-5, 48 h, read-out: Activity.
Type: functional
With `COc1cc2cc(Oc3ccc(NC(=O)Nc4ccccc4)cc3)c(C)nc2cc1OC` the growth at 10 µM was 60.8%.

What follows are compounds tested on ACHN (assay: Growth inhibition of human ACHN cells assessed as cell growth at 10 uM incubated for 48 hrs by sulforhodamine B assay relative to control). Conditions: read-out: Activity.
Type: functional
With `COc1cc2cc(Oc3ccc(NC(=O)Nc4ccccc4)cc3)c(C)nc2cc1OC` the growth at 10 µM was 84.5%.

Each compound was assayed on CAKI-1 (assay: Growth inhibition of human Caki1 cells assessed as cell growth at 10 uM incubated for 48 hrs by sulforhodamine B assay relative to control). Conditions: CAKI-1, 48 h, read-out: Activity.
Type: functional
Compound `COc1cc2cc(Oc3ccc(NC(=O)Nc4ccccc4)cc3)c(C)nc2cc1OC` has a growth at 10 µM of 88.7%.

These compounds were tested on T47D (assay: Growth inhibition of human T47D cells assessed as cell growth at 10 uM incubated for 48 hrs by sulforhodamine B assay relative to control). Conditions: read-out: Activity.
Type: functional
`COc1cc2cc(Oc3ccc(NC(=O)Nc4ccccc4)cc3)c(C)nc2cc1OC` gave a growth at 10 µM of 97.1%.

What follows are compounds tested on SNB-19 (assay: Growth inhibition of human SNB19 cells assessed as cell growth at 10 uM incubated for 48 hrs by sulforhodamine B assay relative to control). Conditions: SNB-19, 48 h, read-out: Activity.
Type: functional
Compound `COc1cc2cc(Oc3ccc(NC(=O)Nc4ccccc4)cc3)c(C)nc2cc1OC` has a growth at 10 µM of 94.8%.

What follows are compounds tested on UO-31 (assay: Growth inhibition of human UO31 cells assessed as cell growth at 10 uM incubated for 48 hrs by sulforhodamine B assay relative to control). Conditions: UO-31, 48 h, read-out: Activity.
Type: functional
Compound `COc1cc2cc(Oc3ccc(NC(=O)Nc4ccccc4)cc3)c(C)nc2cc1OC` has a growth at 10 µM of 65.9%.

The compounds below were run on NCI-H226 (assay: Growth inhibition of human NCI-H226 cells assessed as cell growth at 10 uM incubated for 48 hrs by sulforhodamine B assay relative to control). Conditions: NCI-H226, 48 h, read-out: Activity.
Type: functional
Compound `COc1cc2cc(Oc3ccc(NC(=O)Nc4ccccc4)cc3)c(C)nc2cc1OC` has a growth at 10 µM of 39.8%.

Each compound was assayed on OVCAR-5 (assay: Growth inhibition of human OVCAR5 cells assessed as cell growth at 10 uM incubated for 48 hrs by sulforhodamine B assay relative to control). Conditions: OVCAR-5, 48 h, read-out: Activity.
Type: functional
`COc1cc2cc(Oc3ccc(NC(=O)Nc4ccccc4)cc3)c(C)nc2cc1OC` gave a growth at 10 µM of 99.7%.

These compounds were tested on A549 (assay: Growth inhibition of human A549/ATCC cells assessed as cell growth at 10 uM incubated for 48 hrs by sulforhodamine B assay relative to control). Conditions: A549, 48 h, read-out: Activity.
Type: functional
In the case of `COc1cc2cc(Oc3ccc(NC(=O)Nc4ccccc4)cc3)c(C)nc2cc1OC`, the growth at 10 µM is reported as 58.4%.

These compounds were tested on HL-60(TB) (assay: Growth inhibition of human HL-60(TB) cells assessed as cell growth at 10 uM incubated for 48 hrs by sulforhodamine B assay relative to control). Conditions: HL-60, 48 h, read-out: Activity.
Type: functional
`COc1cc2cc(Oc3ccc(NC(=O)Nc4ccccc4)cc3)c(C)nc2cc1OC` gave a growth at 10 µM of 70.5%.

What follows are compounds tested on UACC-62 (assay: Growth inhibition of human UACC62 cells assessed as cell growth at 10 uM incubated for 48 hrs by sulforhodamine B assay relative to control). Conditions: UACC-62, 48 h, read-out: Activity.
Type: functional
Compound `COc1cc2cc(Oc3ccc(NC(=O)Nc4ccccc4)cc3)c(C)nc2cc1OC` has a growth at 10 µM of 88.4%.
